Assay results from US10154957B2, “Microneedle device having a peptide therapeutic agent and an amino acid and methods of making and using the same” (3M INNOVATIVE PROPERTIES COMPANY, priority 2011, dated 2018).
Marks after values point to notes of the source that are not given here.

Assay: Percent purity of PTHrP analogue in coating with varying His-HCl concentration, three storage conditions (HPLC)
Assay type: physicochemical
Details: peptide 10 mg/mL in PBS
Description: The protein or polypeptide content in the formulation coated on the microneedle arrays was determined using an Agilent 1100 HPLC system (Agilent Technologies, Wilmington, Del.) equipped with a binary pump, well-plated thermostated autosampler, thermostated column compartment, and a diode array UV detector. A Zorbax 300SB-C8 column (Agilent Technologies, Wilmington, Del.) having a 5 μm particle size and 2.1×150 mm inner diameter was used for the separations. The column was maintained at 50° C. The mobile phase consisted of two eluents. Eluent A was 0.1% TFA (trifluoroacetic acid) in water and eluent B was 0.1% TFA in acetonitrile (Spectrum Chemical, New Brunswick, N.J.). A linear gradient from 80/20 to 50/50 (A/B) was applied over 30 minutes. The flow rate was 0.4 mL/minute and the UV detection wavelength was set at 214 nm. The total run time was 34 minutes and the sample injection volume was 15 μL.
Five sample formulations were prepared containing 10 mg/mL of [Glu^22,25,Leu^23,28,31,Aib^29,Lys^26,30]hPTHrP(1-34)NH2 and varying concentrations of L-histidine monohydrochloride (His-HCl) in PBS. The concentrations of His-HCl in the sample formulations range from 1 mg/mL to 10 mg/mL. A control formulation was also prepared containing 10 mg/mL of [Glu^22,25,Leu^23,28,31,Aib^29,Lys^26,30]hPTHrP(1-34)NH2 in PBS. […] Microneedle arrays were coated with either the sample or the control formulations. The coating was applied by dropwise addition of 40 μL of the formulation to the portion of the array defined by the octagon shaped pattern of microneedles. The flood coated arrays (both sample and control formulation coated) were dried in an oven at 35° C. for 1.5 hours followed by 30° C. for 15 hours.
After drying, the coated arrays were placed in a storage chamber that was maintained at one of three storage conditions: 40° C./96% RH (storage condition A); 25° C./60% RH (storage condition B); or 5° C./ambient RH. The [Glu^22,25,Leu^23,28,31,Aib^29,Lys^26,30]hPTHrP(1-34)NH2 content of the coated arrays was determined following storage in a chamber for 1 day, 3 days, 7 days, 14 days, 21 days, 28 days, and 2 months. The initial [Glu^22,25,Leu^23,28,31,Aib^29,Lys^26,30]hPTHrP(1-34)NH2 content was also determined using freshly coated arrays (both sample and control formulation coated). The arrays used to determine initial content were stored in a refrigerator at about 4° C. and analyzed within one day of being prepared. At the designated time point, an array was taken from the chamber and washed with PBS (3.5 mL) to remove the coating from the array. An aliquot of the resulting wash solution was analyzed for [Glu^22,25,Leu^23,28,31,Aib^29,Lys^26,30]hPTHrP(1-34)NH2 content using the HPLC method described above. The results were quantified against an external standard of [Glu^22,25,Leu^23,28,31,Aib^29,Lys^26,30]hPTHrP(1-34)NH2. At each time point, the percent purity of [Glu^22,25,Leu^23,28,31,Aib^29,Lys^26,30]hPTHrP(1-34)NH2 in the coating was determined by measuring the peak area for [Glu^22,25,Leu^23,28,31,Aib^29,Lys^26,30]hPTHrP(1-34)NH2 in the selected coating and dividing it by the total peak area measured for all [Glu^22,25,Leu^23,28,31,Aib^29,Lys^26,30]hPTHrP(1-34)NH2 related peaks.

Substance: [Glu^22,25,Leu^23,28,31,Aib^29,Lys^26,30]hPTHrP(1-34)NH2
- Percent Purity of [Glu^22,25, Leu^23,28,31, Aib^29, Lys^26,30]hPTHrP(1-34)NH2 (Histidine-HCl 1 mg/mL, Storage Condition B (25° C./60% RH), 2 months): 98.1%
- Percent Purity of [Glu^22,25, Leu^23,28,31, Aib^29, Lys^26,30]hPTHrP(1-34)NH2 (Histidine-HCl 1 mg/mL, Storage Condition B (25° C./60% RH), Day 3): 98.7%
- Percent Purity of [Glu^22,25, Leu^23,28,31, Aib^29, Lys^26,30]hPTHrP(1-34)NH2 (Histidine-HCl 1 mg/mL, Storage Condition B (25° C./60% RH), Day 7): 98.8%
- Percent Purity of [Glu^22,25, Leu^23,28,31, Aib^29, Lys^26,30]hPTHrP(1-34)NH2 (Histidine-HCl 1 mg/mL, Storage Condition B (25° C./60% RH), Day 14): 98.7%
- Percent Purity of [Glu^22,25, Leu^23,28,31, Aib^29, Lys^26,30]hPTHrP(1-34)NH2 (Histidine-HCl 1 mg/mL, Storage Condition B (25° C./60% RH), Day 28): 98.8%
- Percent Purity of [Glu^22,25, Leu^23,28,31, Aib^29, Lys^26,30]hPTHrP(1-34)NH2 (Histidine-HCl 1 mg/mL, Storage Condition B (25° C./60% RH), Initial): 99.0%
- Percent Purity of [Glu^22,25, Leu^23,28,31, Aib^29, Lys^26,30]hPTHrP(1-34)NH2 (Histidine-HCl 2 mg/mL, Storage Condition A (40° C./96% RH), Day 1): 98.4%
- Percent Purity of [Glu^22,25, Leu^23,28,31, Aib^29, Lys^26,30]hPTHrP(1-34)NH2 (Histidine-HCl 2 mg/mL, Storage Condition A (40° C./96% RH), Day 3): 97.5%
- Percent Purity of [Glu^22,25, Leu^23,28,31, Aib^29, Lys^26,30]hPTHrP(1-34)NH2 (Histidine-HCl 2 mg/mL, Storage Condition A (40° C./96% RH), Day 7): 83.2%
- Percent Purity of [Glu^22,25, Leu^23,28,31, Aib^29, Lys^26,30]hPTHrP(1-34)NH2 (Histidine-HCl 2 mg/mL, Storage Condition A (40° C./96% RH), Day 14): 50.0%
- Percent Purity of [Glu^22,25, Leu^23,28,31, Aib^29, Lys^26,30]hPTHrP(1-34)NH2 (Histidine-HCl 2 mg/mL, Storage Condition A (40° C./96% RH), Day 21, the sample for analysis contained insoluble impurities): 36.8^(a) percent
- Percent Purity of [Glu^22,25, Leu^23,28,31, Aib^29, Lys^26,30]hPTHrP(1-34)NH2 (Histidine-HCl 2 mg/mL, Storage Condition A (40° C./96% RH), Initial): 99.0%
- Percent Purity of [Glu^22,25, Leu^23,28,31, Aib^29, Lys^26,30]hPTHrP(1-34)NH2 (Histidine-HCl 2 mg/mL, Storage Condition B (25° C./60% RH), 2 months): 98.1%
- Percent Purity of [Glu^22,25, Leu^23,28,31, Aib^29, Lys^26,30]hPTHrP(1-34)NH2 (Histidine-HCl 2 mg/mL, Storage Condition B (25° C./60% RH), Day 3): 98.8%
- Percent Purity of [Glu^22,25, Leu^23,28,31, Aib^29, Lys^26,30]hPTHrP(1-34)NH2 (Histidine-HCl 2 mg/mL, Storage Condition B (25° C./60% RH), Day 7): 98.8%
- Percent Purity of [Glu^22,25, Leu^23,28,31, Aib^29, Lys^26,30]hPTHrP(1-34)NH2 (Histidine-HCl 2 mg/mL, Storage Condition B (25° C./60% RH), Day 14): 98.8%
- Percent Purity of [Glu^22,25, Leu^23,28,31, Aib^29, Lys^26,30]hPTHrP(1-34)NH2 (Histidine-HCl 2 mg/mL, Storage Condition B (25° C./60% RH), Day 28): 98.9%
- Percent Purity of [Glu^22,25, Leu^23,28,31, Aib^29, Lys^26,30]hPTHrP(1-34)NH2 (Histidine-HCl 2 mg/mL, Storage Condition B (25° C./60% RH), Initial): 99.0%
- Percent Purity of [Glu^22,25, Leu^23,28,31, Aib^29, Lys^26,30]hPTHrP(1-34)NH2 (Histidine-HCl 3.3 mg/mL, Storage Condition A (40° C./96% RH), Day 1): 98.6%
- Percent Purity of [Glu^22,25, Leu^23,28,31, Aib^29, Lys^26,30]hPTHrP(1-34)NH2 (Histidine-HCl 3.3 mg/mL, Storage Condition A (40° C./96% RH), Day 3): 97.8%
- Percent Purity of [Glu^22,25, Leu^23,28,31, Aib^29, Lys^26,30]hPTHrP(1-34)NH2 (Histidine-HCl 3.3 mg/mL, Storage Condition A (40° C./96% RH), Day 7): 93.5%
- Percent Purity of [Glu^22,25, Leu^23,28,31, Aib^29, Lys^26,30]hPTHrP(1-34)NH2 (Histidine-HCl 3.3 mg/mL, Storage Condition A (40° C./96% RH), Day 14): 58.3%
- Percent Purity of [Glu^22,25, Leu^23,28,31, Aib^29, Lys^26,30]hPTHrP(1-34)NH2 (Histidine-HCl 3.3 mg/mL, Storage Condition A (40° C./96% RH), Day 21, the sample for analysis contained insoluble impurities): 78.2^(a) percent
- Percent Purity of [Glu^22,25, Leu^23,28,31, Aib^29, Lys^26,30]hPTHrP(1-34)NH2 (Histidine-HCl 3.3 mg/mL, Storage Condition A (40° C./96% RH), Initial): 99.3%
- Percent Purity of [Glu^22,25, Leu^23,28,31, Aib^29, Lys^26,30]hPTHrP(1-34)NH2 (Histidine-HCl 3.3 mg/mL, Storage Condition B (25° C./60% RH), 2 months): 98.5%
- Percent Purity of [Glu^22,25, Leu^23,28,31, Aib^29, Lys^26,30]hPTHrP(1-34)NH2 (Histidine-HCl 3.3 mg/mL, Storage Condition B (25° C./60% RH), Day 3): 98.9%
- Percent Purity of [Glu^22,25, Leu^23,28,31, Aib^29, Lys^26,30]hPTHrP(1-34)NH2 (Histidine-HCl 3.3 mg/mL, Storage Condition B (25° C./60% RH), Day 7): 98.8%
- Percent Purity of [Glu^22,25, Leu^23,28,31, Aib^29, Lys^26,30]hPTHrP(1-34)NH2 (Histidine-HCl 3.3 mg/mL, Storage Condition B (25° C./60% RH), Day 14): 98.9%
- Percent Purity of [Glu^22,25, Leu^23,28,31, Aib^29, Lys^26,30]hPTHrP(1-34)NH2 (Histidine-HCl 3.3 mg/mL, Storage Condition B (25° C./60% RH), Day 28): 98.8%
